Source: patent US4885277A, “Anticoagulant therapy” (Oklahoma Medical Research Foundation, priority 1987, dated 1989)
Where no end group is shown, it is not given here. [ ]: non-standard residue; d: D form. pGlu = O=C1CC[C@@H](C(=O)O)N1

System: endothelial cellular receptors for Factor IX (cultured bovine aortic endothelial cells)
Test: Competitive binding of [125I]-Factor IX to cultured bovine aortic endothelial cells
Conditions: up to millimolar amounts of peptide
Experimental: The purified peptides were tested for their ability to block the binding of bovine Factor IX and IXa to cultured bovine aortic endothelial cells. Bovine Factor IX and IXa for these studies were prepared and radioiodinated (using Na^125 I and the solid state lactoperoxidase technique) using methods described by Stern, et al. (J. Biol. Chem. 260, pp. 6717-6722 [1985]). Bovine aortic endothelial cells were obtained from the aortae of newborn calves as described by Stern, et al. (Proc. Natl. Acad. Sci. U.S.A., 80, pp. 4119-4123 [1983]). These endothelial cells were grown to confluence (1.3×10^5 cells/cm^2) in culture dishes. Binding assays were carried out by incubating either ^125 I-Factor IX or ^125 I-Factor IXa with endothelial cell monolayers in the presence of varying concentrations of one of the peptides. The buffer used in these experiments was Minimal Essential Medium containing 0.5 mg/ml transferring, and the incubation time was 4-5 hours at 4° C. At the end of the incubation period, the cultures were washed to remove unbound material. Then, specifically bound [^125 I]-Factor IX or [^125 I]-Factor IXa was eluted during exposure to EDTA-containing buffer as described by Stern, et al. (Proc. Natl. Acad. Sci. U.S.A., 80, pp. 4119-4123 [1983].

Substance	inhibition of [125I]-Factor IX endothelial cell binding
DRVYVHPSL [Angiotensin I, control peptide for specificity]	no inhibition
PCA-Gly-Val-Asn-Glu-Glu-Gly-Phe-Phe-Ser-Ala-Arg ([pGlu]GVNEEGFFSAR) [fibrinopeptide B, control peptide for specificity]	no inhibition
